*1 amine or outer side, *2 acyl side, *3 side chain or, on linkers, in order; H or OH if unused. Where a SMILES comes first, the peptide text is derived from it. Side-chain parts run from the residue outwards. [ ]: non-standard residue; d: D form. The star is where a group is joined. Isobutyryl(2-(3-CN-5-F-Ph)) = CC(C)(C(=O)*)c1cc(F)cc(C#N)c1; C20 diacid = O=C(O)CCCCCCCCCCCCCCCCCCC(=O)*; γGlu = O=C(O)[C@H](CCC(=O)[*:2])N[*:1]; X21 = O=C(C(CN[*:1])C(F)(F)F)[*:2]; AEEA = NCCOCCOCC(=O)O; Aib = CC(C)(N)C(=O)O; βAla = NCCC(=O)O

Format in all cases: cell-based
Experiment [1] has as its target T1, GLP-1 receptor (Homo sapiens, UniProt P43220). The experiment is described as follows: PathHunter β-arrestin assay, GLP-1 receptor. Also noted: host or cells: PathHunter CHO-K1 GLP1R β-Arrestin Cell Line. The note with it: β-arrestin-2 recruitment, PathHunter CHO-K1 GLP1R β-Arrestin Cell Line, 90 min at 37° C.; normalized to GLP-1; read-out: GLP-1R β Arrestin EC50.

The target of experiment [2] is T1, GLP-1 receptor. Description: HitHunter cAMP assay, GLP-1 receptor. Conditions: for EC50: CHO cells stably expressing human GLP-1 receptor, cAMP accumulation, 30 min, read-out: EC50 GLP-1R; for Emax: CHO cells, cAMP, normalized to maximum signal from GLP-1 (high) and DMSO (low), read-out: Emax GLP-1R. A general note: Changes in cAMP serve as a functional read-out for many G protein-coupled receptors.

The target of experiment [3] is T2, GIP receptor (Homo sapiens, UniProt P48546).
T2 sequence (P48546 22-466): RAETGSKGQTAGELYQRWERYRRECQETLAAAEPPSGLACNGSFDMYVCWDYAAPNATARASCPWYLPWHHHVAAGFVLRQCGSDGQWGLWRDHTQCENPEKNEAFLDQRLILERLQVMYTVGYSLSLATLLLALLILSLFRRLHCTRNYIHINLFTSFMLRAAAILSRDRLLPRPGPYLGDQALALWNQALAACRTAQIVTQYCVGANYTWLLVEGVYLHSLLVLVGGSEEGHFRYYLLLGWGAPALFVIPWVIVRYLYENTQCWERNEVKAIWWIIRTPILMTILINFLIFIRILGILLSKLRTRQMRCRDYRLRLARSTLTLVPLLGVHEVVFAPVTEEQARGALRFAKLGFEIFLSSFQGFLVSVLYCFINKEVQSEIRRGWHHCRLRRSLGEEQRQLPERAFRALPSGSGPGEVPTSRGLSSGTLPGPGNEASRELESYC
Description: PathHunter β-arrestin assay, GIP receptor. Also on record: host or cells: PathHunter CHO-K1 GIPR β-Arrestin Cell Line. Conditions: β-arrestin-2 recruitment, PathHunter CHO-K1 GIPR β-Arrestin Cell Line, 90 min at 37° C.; normalized to GIP; read-out: GIPR β Arrestin EC50.

Experiment [4] has as its target T2, GIP receptor. The experiment is described as follows: HitHunter cAMP assay, GIP receptor. Conditions: for EC50: CHO cells stably expressing GIP receptor, cAMP accumulation, 30 min, read-out: EC50 GIP-1R; for Emax: CHO cells, cAMP, normalized to maximum signal from GIP (high) and DMSO (low), read-out: Emax GIP-1R.

T1 sequence (P43220 24-463): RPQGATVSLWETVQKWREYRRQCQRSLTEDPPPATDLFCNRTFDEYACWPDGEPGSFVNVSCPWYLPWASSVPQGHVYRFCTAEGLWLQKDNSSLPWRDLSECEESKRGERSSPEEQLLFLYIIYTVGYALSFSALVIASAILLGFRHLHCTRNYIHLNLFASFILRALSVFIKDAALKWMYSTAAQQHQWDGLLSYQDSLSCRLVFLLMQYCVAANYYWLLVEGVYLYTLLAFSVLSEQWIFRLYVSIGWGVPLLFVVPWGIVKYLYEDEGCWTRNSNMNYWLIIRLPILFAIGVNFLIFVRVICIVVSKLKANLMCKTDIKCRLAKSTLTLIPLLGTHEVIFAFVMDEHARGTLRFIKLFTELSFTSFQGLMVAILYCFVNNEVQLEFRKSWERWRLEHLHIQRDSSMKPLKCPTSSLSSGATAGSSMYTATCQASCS

Broadly, the EC50 is the concentration at which the effect is half-maximal. For orientation: Emax means the greatest response seen or fitted, relative to the assay's reference. In the case of `CC[C@H](C)[C@H](NC(=O)[C@H](CC(C)C)NC(=O)[C@H](Cc1c[nH]c2ccccc12)NC(=O)[C@H](CCC(N)=O)NC(=O)[C@@H](NC(=O)[C@H](Cc1ccccc1)NC(=O)[C@H](C)NC(=O)[C@H](CCCCNC(=O)COCCOCCNC(=O)COCCOCCNC(=O)CC[C@H](NC(=O)CCCCCCCCCCCCCCCCCCC(=O)O)C(=O)O)NC(=O)[C@H](CCC(N)=O)NC(=O)[C@H](C)NC(=O)[C@@H](NC(=O)[C@H](CCCCN)NC(=O)[C@H](CC(=O)O)NC(=O)[C@H](CC(C)C)NC(=O)C(C)(C)NC(=O)[C@@H](NC(=O)[C@H](CO)NC(=O)[C@H](Cc1ccc(O)cc1)NC(=O)[C@H](CC(=O)O)NC(=O)[C@H](CO)NC(=O)[C@@H](NC(=O)[C@H](Cc1ccccc1)NC(=O)[C@@H](NC(=O)CNC(=O)[C@H](CCC(=O)O)NC(=O)C(CNC(=O)C(C)(C)c1cc(F)cc(C#N)c1)C(F)(F)F)[C@@H](C)O)[C@@H](C)O)[C@@H](C)CC)[C@@H](C)CC)C(C)C)C(=O)N[C@@H](C)C(=O)NCC(=O)NCC(=O)N1CCC[C@H]1C(=O)N[C@@H](CO)C(=O)N[C@@H](CO)C(=O)NCC(=O)N[C@@H](C)C(=O)N1CCC[C@H]1C(=O)N1CCC[C@H]1C(=O)N1CCC[C@H]1C(=O)N[C@@H](CO)C(N)=O` (stereo partly drawn) [Compound 165] ({Isobutyryl(2-(3-CN-5-F-Ph))}-[X21]EGTFTSDYSI[Aib]LDKIAQK([AEEA-AEEA-γGlu-C20 diacid])AFVQWLIAGGPSSGAPPPS-NH2), the EC50 at GLP-1 receptor [1] was greater than 1 µM; at GLP-1 receptor [2] it was 0.01 to 0.1 µM; on GIP receptor [3], greater than 1 µM; at GIP receptor [4], 0.1 to 1 µM. Further, the Emax turned out to be 111% at GLP-1 receptor [2] and 92% on GIP receptor [4].

`CC[C@H](C)[C@H](NC(=O)[C@H](CC(C)C)NC(=O)[C@H](Cc1c[nH]c2ccccc12)NC(=O)[C@H](CCC(N)=O)NC(=O)[C@@H](NC(=O)[C@H](Cc1ccccc1)NC(=O)[C@H](C)NC(=O)[C@H](CCCCNC(=O)COCCOCCNC(=O)COCCOCCNC(=O)CC[C@H](NC(=O)CCCCCCCCCCCCCCCCCCC(=O)O)C(=O)O)NC(=O)[C@H](CCC(N)=O)NC(=O)[C@H](C)NC(=O)[C@@H](NC(=O)[C@H](CCCCN)NC(=O)[C@H](CC(=O)O)NC(=O)[C@H](CC(C)C)NC(=O)C(C)(C)NC(=O)[C@@H](NC(=O)[C@H](CO)NC(=O)[C@H](Cc1ccc(O)cc1)NC(=O)[C@H](CC(=O)O)NC(=O)[C@H](CO)NC(=O)[C@@H](NC(=O)[C@H](Cc1ccccc1)NC(=O)[C@@H](NC(=O)CNC(=O)[C@H](CCC(=O)O)NC(=O)CCNC(=O)C(C)(C)c1cc(F)cc(C#N)c1)[C@@H](C)O)C(C)C)[C@@H](C)CC)[C@@H](C)CC)C(C)C)C(=O)N[C@@H](C)C(=O)NCC(=O)NCC(=O)N1CCC[C@H]1C(=O)N[C@@H](CO)C(=O)N[C@@H](CO)C(=O)NCC(=O)N[C@@H](C)C(=O)N1CCC[C@H]1C(=O)N1CCC[C@H]1C(=O)N1CCC[C@H]1C(=O)N[C@@H](CO)C(N)=O` [Compound 166] ({Isobutyryl(2-(3-CN-5-F-Ph))-βAla}-EGTFVSDYSI[Aib]LDKIAQK([AEEA-AEEA-γGlu-C20 diacid])AFVQWLIAGGPSSGAPPPS-NH2): the EC50 at GLP-1 receptor [1] was greater than 1 µM; at GLP-1 receptor [2], 0.01 to 0.1 µM; on GIP receptor [3], less than 1 µM; on GIP receptor [4], 0.001 to 0.01 µM. The figures for the Emax on GLP-1 receptor [2] and at GIP receptor [4] were 77% and 108%, respectively.

These data come from patent US12281149B2, “Modulators of G-protein coupled receptors” (priority 2021, dated 2025).
